Experimental data: the NIST ThermoML archive (doi:10.1016/j.jct.2015.07.005)
“And” between values parts separate entries of the source, which are not always exact repeats. Identical values can stand only once. Numbers after ± are expanded uncertainties.

Settings: Gas, Frequency=0.005 MHz, Spherical cavity resonance method

C [methane]
Settings	speed of sound
280.01 K, 500.03 kPa	434.02 ± 0.07 m/s and 434.03 ± 0.067 m/s
280.01 K, 500.04 kPa	434.03 ± 0.067 m/s
280.01 K, 500.18 kPa	434.03 ± 0.071 m/s
280.02 K, 500.03 kPa	434.03 ± 0.073 m/s and 434.03 ± 0.072 m/s
280.02 K, 500.04 kPa	434.03 ± 0.069 m/s and 434.02 ± 0.074 m/s and 434.03 ± 0.067 m/s
280.02 K, 500.18 kPa	434.03 ± 0.068 m/s
280.02 K, 500.19 kPa	434.03 ± 0.07 m/s and 434.03 ± 0.066 m/s and 434.03 ± 0.068 m/s
293.27 K, 394.31 kPa	443.98 ± 0.062 m/s and 443.97 ± 0.063 m/s and 443.97 ± 0.066 m/s
293.27 K, 394.32 kPa	443.97 ± 0.067 m/s and 443.97 ± 0.063 m/s and 443.97 ± 0.065 m/s
293.28 K, 394.32 kPa	443.97 ± 0.067 m/s [middle of 6 runs]
293.28 K, 394.33 kPa	443.98 ± 0.067 m/s and 443.98 ± 0.064 m/s and 443.97 ± 0.066 m/s
293.28 K, 394.34 kPa	443.98 ± 0.065 m/s
293.28 K, 394.35 kPa	443.98 ± 0.065 m/s and 443.98 ± 0.063 m/s
293.29 K, 394.36 kPa	443.98 ± 0.064 m/s and 443.97 ± 0.063 m/s
319.52 K, 429.9 kPa	462.06 ± 0.065 m/s
319.53 K, 429.91 kPa	462.06 ± 0.067 m/s
319.55 K, 428.61 kPa	461.97 ± 0.066 m/s and 461.97 ± 0.064 m/s
319.87 K, 471.86 kPa	462.12 ± 0.071 m/s
319.87 K, 471.87 kPa	462.12 ± 0.075 m/s
319.88 K, 471.88 kPa	462.12 ± 0.07 m/s
319.88 K, 471.91 kPa	462.13 ± 0.075 m/s
319.89 K, 471.91 kPa	462.13 ± 0.07 m/s and 462.13 ± 0.074 m/s
319.89 K, 471.92 kPa	462.13 ± 0.07 m/s
319.89 K, 471.93 kPa	462.12 ± 0.068 m/s and 462.13 ± 0.071 m/s
319.94 K, 430.41 kPa	462.32 ± 0.065 m/s
319.94 K, 430.42 kPa	462.32 ± 0.064 m/s
319.95 K, 429.13 kPa	462.24 ± 0.065 m/s
319.96 K, 429.13 kPa	462.24 ± 0.064 m/s
339.35 K, 456 kPa	474.76 ± 0.071 m/s and 474.76 ± 0.069 m/s
339.88 K, 456.67 kPa	475.08 ± 0.07 m/s
339.89 K, 456.67 kPa	475.08 ± 0.071 m/s
359.27 K, 481.98 kPa	486.94 ± 0.065 m/s
359.28 K, 480.58 kPa	486.84 ± 0.09 m/s
359.28 K, 481.81 kPa	486.76 ± 0.11 m/s
359.28 K, 481.99 kPa	486.94 ± 0.064 m/s
359.29 K, 480.58 kPa	486.85 ± 0.089 m/s
359.85 K, 482.79 kPa	487.31 ± 0.067 m/s
359.86 K, 482.59 kPa	487.15 ± 0.066 m/s
359.86 K, 482.79 kPa	487.31 ± 0.065 m/s
359.87 K, 482.6 kPa	487.15 ± 0.064 m/s
360.03 K, 529.63 kPa	487.35 ± 0.073 m/s
360.03 K, 529.64 kPa	487.35 ± 0.081 m/s and 487.35 ± 0.088 m/s
360.03 K, 529.66 kPa	487.35 ± 0.071 m/s
360.04 K, 529.66 kPa	487.34 ± 0.071 m/s and 487.34 ± 0.076 m/s
360.04 K, 529.67 kPa	487.33 ± 0.077 m/s and 487.33 ± 0.078 m/s
379.2 K, 507.87 kPa	498.66 ± 0.097 m/s and 498.66 ± 0.099 m/s
379.78 K, 508.56 kPa	498.97 ± 0.096 m/s and 498.98 ± 0.095 m/s
399.24 K, 533.63 kPa	510.01 ± 0.15 m/s and 510.02 ± 0.15 m/s
399.82 K, 534.48 kPa	510.39 ± 0.15 m/s and 510.39 ± 0.14 m/s
399.99 K, 471.94 kPa	510.49 ± 0.07 m/s and 510.5 ± 0.084 m/s and 510.49 ± 0.075 m/s
399.99 K, 471.95 kPa	510.47 ± 0.077 m/s and 510.48 ± 0.073 m/s
399.99 K, 471.96 kPa	510.47 ± 0.073 m/s
399.99 K, 471.97 kPa	510.47 ± 0.069 m/s
399.99 K, 471.98 kPa	510.47 ± 0.074 m/s
400 K, 471.96 kPa	510.46 ± 0.085 m/s
419.54 K, 559.42 kPa	521.02 ± 0.13 m/s
419.55 K, 559.43 kPa	521.03 ± 0.12 m/s
419.56 K, 559.63 kPa	521.2 ± 0.13 m/s and 521.2 ± 0.14 m/s
419.99 K, 560 kPa	521.28 ± 0.12 m/s
420 K, 560.01 kPa	521.28 ± 0.12 m/s and 521.29 ± 0.12 m/s
420.02 K, 560.19 kPa	521.47 ± 0.12 m/s
420.02 K, 560.2 kPa	521.46 ± 0.14 m/s
439.94 K, 496.85 kPa	532.03 ± 0.076 m/s
439.94 K, 496.86 kPa	532.02 ± 0.082 m/s and 532.03 ± 0.077 m/s
439.94 K, 496.87 kPa	532.02 ± 0.073 m/s
439.94 K, 496.88 kPa	532.01 ± 0.069 m/s [middle of 5 runs]
449.69 K, 597.89 kPa	537.24 ± 0.069 m/s
449.69 K, 597.9 kPa	537.24 ± 0.068 m/s [middle of 6 runs]
449.7 K, 597.88 kPa	537.22 ± 0.072 m/s
449.7 K, 597.89 kPa	537.22 ± 0.075 m/s and 537.23 ± 0.071 m/s
449.7 K, 597.9 kPa	537.23 ± 0.069 m/s and 537.24 ± 0.072 m/s and 537.23 ± 0.072 m/s
449.71 K, 597.88 kPa	537.22 ± 0.074 m/s and 537.21 ± 0.07 m/s
449.71 K, 597.89 kPa	537.22 ± 0.072 m/s [middle of 5 runs]
449.72 K, 597.88 kPa	537.2 ± 0.076 m/s
449.72 K, 597.89 kPa	537.21 ± 0.074 m/s [middle of 4 runs]
449.73 K, 597.86 kPa	537.19 ± 0.076 m/s
449.73 K, 597.87 kPa	537.2 ± 0.072 m/s and 537.19 ± 0.069 m/s and 537.19 ± 0.077 m/s
449.74 K, 597.86 kPa	537.19 ± 0.075 m/s
449.74 K, 597.87 kPa	537.2 ± 0.074 m/s and 537.2 ± 0.071 m/s
449.77 K, 597.88 kPa	537.2 ± 0.069 m/s and 537.2 ± 0.071 m/s
449.78 K, 597.9 kPa	537.2 ± 0.07 m/s
449.79 K, 597.9 kPa	537.2 ± 0.081 m/s
479.91 K, 495.54 kPa	552.38 ± 0.078 m/s
479.92 K, 495.51 kPa	552.4 ± 0.076 m/s and 552.39 ± 0.069 m/s
479.92 K, 495.52 kPa	552.4 ± 0.074 m/s
479.92 K, 495.54 kPa	552.39 ± 0.084 m/s
479.92 K, 495.55 kPa	552.39 ± 0.074 m/s
479.92 K, 495.57 kPa	552.38 ± 0.072 m/s and 552.39 ± 0.07 m/s
479.92 K, 539.8 kPa	552.38 ± 0.078 m/s and 552.39 ± 0.072 m/s
479.92 K, 539.81 kPa	552.39 ± 0.09 m/s
